Source: patent US9067966B2, “Lupeol-type triterpene derivatives as antivirals” (priority 2009, dated 2015)
Read-outs that look alike come from different tables or passages of the source.

What was measured:
Format in all cases: cell-based
HIV-1 strain NL4-3 = assay: Anti-HIV-1 luciferase indicator assay in MT2 cells, NL4-3; details: viral strain NL4-3; for IC50: Human immunodeficiency virus 1, NL43, MT2, MT2 cells; for TI / Safety Index (CC50/IC50): MT2 cells
Procedure: (§1) Compound was dissolved in DMSO to make 30 mM stock. Then the 30 mM stock is further diluted to 4 mM using DMSO. The 4 mM stock was used as the top concentration to carry out an 11-point, 3-fold dilution scheme using DMSO in a 96-well plate to make the compound dose plate. Compounds in the dose plate were transferred to a new 96-well plate (working plate) containing PBS with 0.05% pluronic acid. From this working plate, the compound solution was transferred to the 384-well assay plates.
(§2) Control compounds used in compound control wells were prepared and added to assay plates individually.
(§3) MT2 cells were mixed with HIV-1 strain NL4-3 (or IIIB, or CNHN24) and the cell/virus mixture was added to the aforementioned antivirus assay plates. After incubation in a 37° C., 5% CO2 incubator, the supernatant from the assay plate was transferred to a new 384-well plate containing the indicator cells with a fire fly luciferase gene under HIV-1 LTR control. The expression level of luciferase was related to HIV-1 infectivity and was measured by Bright-Glo kit (Promega).
(§4) Therapeutic index (TI) was determined by taking ratio of CC50/IC50

HIV-1 strain IIIB = assay: Anti-HIV-1 luciferase indicator assay in MT2 cells, IIIB; details: for IC50: Human immunodeficiency virus 1, IIIB; for TI / Safety Index (CC50/IC50): MT2 cells
Procedure: as §1, §2, §3, §4

HIV-1 strain CNHN24 = assay: Anti-HIV-1 luciferase indicator assay in MT2 cells, CNHN24; details: for TI / Safety Index (CC50/IC50): MT2 cells
Procedure: as §1, §2, §3, §4

in vitro = details: human, CC50
Procedure: as §1
For cytotoxicity assay the same amount of MT2 cells as in antivirus assay but without HIV-1 virus were added to the cytotoxicity plates. The cytotoxicity was measured by Cell Titer-Glo cell viability assay (Promega).

[1] = MT2, MT2 cells, viral strain II B, read-out: IC50
[2] = Human immunodeficiency virus 1, MT2, MT2 cells, viral strain CNHN24, read-out: IC50

| SMILES | IC50 (HIV-1 strain NL4-3; read-out: IC50) [nM] | TI / Safety Index (CC50/IC50) (HIV-1 strain NL4-3) | IC50 (HIV-1 strain IIIB; [1]) [nM] | TI / Safety Index (CC50/IC50) (HIV-1 strain IIIB; viral strain II B) | IC50 (HIV-1 strain CNHN24; [2]) [nM] | TI / Safety Index (CC50/IC50) (HIV-1 strain CNHN24; viral strain CNHN24) | CC50 (in vitro) [nM] | IC50 (HIV-1 strain NL4-3) [nM] | IC50 (HIV-1 strain IIIB; MT2) [nM] | IC50 (HIV-1 strain CNHN24; Human immunodeficiency virus 1, MT2) [nM] |
| --- | --- | --- | --- | --- | --- | --- | --- | --- | --- | --- |
| C=C(C)[C@@H]1CC[C@]2(C(=O)N[C@H]3C[C@@H](C(=O)N4CCOCC4)C3(C)C)CC[C@]3(C)[C@H](CC[C@@H]4[C@@]5(C)CC[C@H](O)C(C)(C)[C@@H]5CC[C@]43C)[C@@H]12 [Example 8, (1R,3aS,5aR,5bR,7aR,9S,11aR,11bR,13aR,13bR)-N-((1S,3R)-2,2-dimethyl-3-(morpholine-4-carbonyl)cyclobutyl)-9-hydroxy-5a,5b,8,8,11a-pentamethyl-1-(prop-1-en-2-yl)icosahydro-1H-cyclopenta[a]chrysene-3a-carboxamide] | 2200 | 9 | 3140 | 6 | 2830 | 7 | 20000 | – | – | – |
| C=C(C)[C@@H]1CC[C@]2(C(=O)N[C@H]3C[C@@H](C(=O)N4CCOCC4)C3(C)C)CC[C@]3(C)[C@H](CC[C@@H]4[C@@]5(C)CC[C@H](OC(=O)CC(C)(C)C(=O)O)C(C)(C)[C@@H]5CC[C@]43C)[C@@H]12 [Example 9, 4-((1R,3aS,5aR,5bR,7aR,9S,11aR,11bR,13aR,13bR)-3a-((1S,3R)-2,2-dimethyl-3-(morpholine-4-carbonyl)cyclobutylcarbamoyl)-5a,5b,8,8,11a-pentamethyl-1-(prop-1-en-2-yl)icosahydro-1H-cyclopenta[a]chrysen-9-yloxy)-2,2-dimethyl-4-oxobutanoic acid] | – | 3579 | 7 | 2658 | 8 | 2429 | > 20000 | 5 | – | – |
| C=C(C)[C@@H]1CC[C@]2(C(=O)N[C@H]3C[C@@H](C(=O)N4CCCCC4)C3(C)C)CC[C@]3(C)[C@H](CC[C@@H]4[C@@]5(C)CC[C@H](O)C(C)(C)[C@@H]5CC[C@]43C)[C@@H]12 [Example 11, (1R,3aS,5aR,5bR,7aR,9S,11aR,11bR,13aR,13bR)-N-((1S,3R)-2,2-dimethyl-3-(piperidine-1-carbonyl)cyclobutyl)-9-hydroxy-5a,5b,8,8,11a-pentamethyl-1-(prop-1-en-2-yl)icosahydro-1H-cyclopenta[a]chrysene-3a-carboxamide] | 4250 | 4.7 | 5670 | 3.5 | 5880 | 3.4 | > 20000 | – | – | – |
| C=C(C)[C@@H]1CC[C@]2(C(=O)N[C@H]3C[C@@H](C(=O)N4CCCCC4)C3(C)C)CC[C@]3(C)[C@H](CC[C@@H]4[C@@]5(C)CC[C@H](OC(=O)CC(C)(C)C(=O)O)C(C)(C)[C@@H]5CC[C@]43C)[C@@H]12 [Example 12, 4-((1R,3aS,5aR,5bR,7aR,9S,11aR,11bR,13aR,13bR)-3a-((1S,3R)-2,2-dimethyl-3-(piperidine-1-carbonyl)cyclobutylcarbamoyl)-5a,5b,8,8,11a-pentamethyl-1-(prop-1-en-2-yl)icosahydro-1H-cyclopenta[a]chrysen-9-yloxy)-2,2-dimethyl-4-oxobutanoic acid] | – | 316 | 29 | 227 | 17 | 383 | > 20000 | 21 | – | – |
| C=C(C)[C@@H]1CC[C@]2(C(=O)N[C@@H]3CC[C@H](CN4CCC(Cc5ccccc5)CC4)C3)CC[C@]3(C)[C@H](CC[C@@H]4[C@@]5(C)CC[C@H](OC(=O)CCCC(=O)O)C(C)(C)[C@@H]5CC[C@]43C)[C@@H]12 [Example 33, 5-((1R,3aS,5aR,5bR,7aR,9S,11aR,11bR,13aR,13bR)-3a-((1R,3S)-3-((4-benzylpiperidin-1-yl)methyl)cyclopentylcarbamoyl)-5a,5b,8,8,11a-pentamethyl-1-(prop-1-en-2-yl)icosahydro-1H-cyclopenta[a]chrysen-9-yloxy)-5-oxopentanoic acid] | 6700 | 2.98 | 6700 | 2.98 | 6700 | 2.98 | 20000 | – | – | – |
| C=C(C)[C@@H]1CC[C@]2(C(=O)N[C@@H]3CC[C@H](CN4CCN(CC)CC4)C3)CC[C@]3(C)[C@H](CC[C@@H]4[C@@]5(C)CC[C@H](OC(=O)CC(C)(C)C(=O)O)C(C)(C)[C@@H]5CC[C@]43C)[C@@H]12 [Example 36, 4-((1R,3aS,5aR,5bR,7aR,9S,11aR,11bR,13aR,13bR)-3a-((1R,3S)-3-((4-ethylpiperazin-1-yl)methyl)cyclopentylcarbamoyl)-5a,5b,8,8,11a-pentamethyl-1-(prop-1-en-2-yl)icosahydro-1H-cyclopenta[a]chrysen-9-yloxy)-2,2-dimethyl-4-oxobutanoic acid] | 5 | 4000 | 4 | 5000 | 5 | 4000 | > 20000 | – | – | – |
| C=C(C)[C@@H]1CC[C@]2(C(=O)N3CCN(CC)CC3)CC[C@]3(C)[C@H](CC[C@@H]4[C@@]5(C)CC[C@H](OC(=O)C6CC(C(=O)O)C6(C)C)C(C)(C)[C@@H]5CC[C@]43C)[C@@H]12 (stereo partly drawn) [Example 54, 3-(((1R,3aS,5aR,5bR,7aR,9S,11aR,11bR,13aR,13bR)-3a-(4-ethylpiperazine-1-carbonyl)-5a,5b,8,8,11a-pentamethyl-1-(prop-1-en-2-yl)icosahydro-1H-cyclopenta[a]chrysen-9-yloxy)carbonyl)-2,2-dimethylcyclobutanecarboxylic acid] | 13 | 1538 | 5 | 4000 | 24 | 833 | > 20000 | – | – | – |
| C=C(C)[C@@H]1CC[C@]2(C(=O)N3CCC(Cc4ccccc4)(C(=O)OCC)CC3)CC[C@]3(C)[C@H](CC[C@@H]4[C@@]5(C)CC[C@H](OC(=O)CC(C)(C)C(=O)O)C(C)(C)[C@@H]5CC[C@]43C)[C@@H]12 [Example 57, 4-((1R,3aS,5aR,5bR,7aR,9S,11aR,11bR,13aR,13bR)-3a-(4-benzyl-4-(ethoxycarbonyl)piperidine-1-carbonyl)-5a,5b,8,8,11a-pentamethyl-1-(prop-1-en-2-yl)icosahydro-1H-cyclopenta[a]chrysen-9-yloxy)-2,2-dimethyl-4-oxobutanoic acid] | 857 | 23 | 590 | 33 | 1070 | 20 | > 20000 | – | – | – |
| C=C(C)[C@@H]1CC[C@]2(C(=O)N3CCC(CC)(C(=O)OCC)CC3)CC[C@]3(C)[C@H](CC[C@@H]4[C@@]5(C)CC[C@H](OC(=O)CC(C)(C)C(=O)O)C(C)(C)[C@@H]5CC[C@]43C)[C@@H]12 [Example 74, 4-((1R,3aS,5aR,5bR,7aR,9S,11aR,11bR,13aR,13bR)-3a-(4-(ethoxycarbonyl)-4-ethylpiperidine-1-carbonyl)-5a,5b,8,8,11a-pentamethyl-1-(prop-1-en-2-yl)icosahydro-1H-cyclopenta[a]chrysen-9-yloxy)-2,2-dimethyl-4-oxobutanoic acid] | 165 | 47 | 86 | 90 | 163 | 47 | 7760 | – | – | – |
| C=C(C)[C@@H]1CC[C@]2(C(=O)N[C@@H]3CC[C@H](CN4CCC(Cc5ccccc5)CC4)C3)CC[C@]3(C)[C@H](CC[C@@H]4[C@@]5(C)CC[C@H](OC(=O)CC(C)(C)CC(=O)O)C(C)(C)[C@@H]5CC[C@]43C)[C@@H]12 [Example 94, 5-((1R,3aS,5aR,5bR,7aR,9S,11aR,11bR,13aR,13bR)-3a-((1R,3S)-3-((4-benzylpiperidin-1-yl)methyl)cyclopentylcarbamoyl)-5a,5b,8,8,11a-pentamethyl-1-(prop-1-en-2-yl)icosahydro-1H-cyclopenta[a]chrysen-9-yloxy)-3,3-dimethyl-5-oxopentanoic acid] | 23 | 173 | 19 | 210 | 26 | 153 | 4000 | – | – | – |
| C=C(C)[C@@H]1CC[C@]2(C(=O)N[C@@H]3C=C[C@H](CN4CCOCC4)C3)CC[C@]3(C)[C@H](CC[C@@H]4[C@@]5(C)CC[C@H](OC(=O)CC(C)(C)C(=O)O)C(C)(C)[C@@H]5CC[C@]43C)[C@@H]12 [Example 95, 2,2-dimethyl-4-oxo-4-((1R,3aS,5aR,5bR,7aR,9S,11aR,11bR,13aR,13bR)-5a,5b,8,8,11a-pentamethyl-3a-((1S,4R)-4-(morpholinomethyl)cyclopent-2-enylcarbamoyl)-1-(prop-1-en-2-yl)icosahydro-1H-cyclopenta[a]chrysen-9-yloxy)butanoic acid] | 4 | 5000 | – | 20000 | – | – | > 20000 | – | 1 | 3 |
